Structures are written as SMILES.

The values that follow come from ChEMBL document CHEMBL5303573, “Mapping human microbiome drug metabolism by gut bacteria and their genes” (Nature, 2019).

The nature of data set [1]: The drug is tested on Bifidobacterium breve strain: DSM20213 for biotransformation. The drug concentrations were measured before and after a 12-h incubation by liquid-chromatography-coupled mass spectrometry (LC–MS). The following applies: 2 µM.
The conditions of data set [2]: limosilactobacillus reuteri cf48-3a, 12 h, 2 µM.
Description: The drug is tested on Lactobacillus reuteri CF48-3A strain: BEI HM-102 for biotransformation. The drug concentrations were measured before and after a 12-h incubation by liquid-chromatography-coupled mass spectrometry (LC–MS)
A short description of data set [3]: The drug is tested on Edwardsiella tarda strain: ATCC23685 for biotransformation. The drug concentrations were measured before and after a 12-h incubation by liquid-chromatography-coupled mass spectrometry (LC–MS). The following applies: 2 µM.
A short description of data set [4]: The drug is tested on Bacteroides xylanisolvens strain: DSM18836 for biotransformation. The drug concentrations were measured before and after a 12-h incubation by liquid-chromatography-coupled mass spectrometry (LC–MS). The following applies: 2 µM.
The nature of data set [5]: The drug is tested on Anaerotruncus colihominis strain: DSM17241 for biotransformation. The drug concentrations were measured before and after a 12-h incubation by liquid-chromatography-coupled mass spectrometry (LC–MS). The following applies: 2 µM.
Data set [6] is described as follows: The drug is tested on Bacteroides fragilis strain: HMW610 for biotransformation. The drug concentrations were measured before and after a 12-h incubation by liquid-chromatography-coupled mass spectrometry (LC–MS). The settings on record: 2 µM.
The nature of data set [7]: The drug is tested on Blautia luti strain: DSM14534 for biotransformation. The drug concentrations were measured before and after a 12-h incubation by liquid-chromatography-coupled mass spectrometry (LC–MS). The data set is classed as ADME. On the set-up: dose 2 uM, timepoint 0 vs 12 hours. The settings on record: 2 µM.
The conditions of data set [8]: bacteroides intestinalis, 12 h, 2 µM.
Description: The drug is tested on Bacteroides intestinalis strain: DSM17393 for biotransformation. The drug concentrations were measured before and after a 12-h incubation by liquid-chromatography-coupled mass spectrometry (LC–MS)
Data set [9] can be described thus: The drug is tested on Ruminococcus lactaris strain: ATCC29176 for biotransformation. The drug concentrations were measured before and after a 12-h incubation by liquid-chromatography-coupled mass spectrometry (LC–MS). The settings on record: 2 µM.
A short description of data set [10]: The drug is tested on Bacteroides sp. WH2 strain: WH2 for biotransformation. The drug concentrations were measured before and after a 12-h incubation by liquid-chromatography-coupled mass spectrometry (LC–MS). The following applies: bacteroides sp. wh2, 12 h, 2 µM.
The conditions of data set [11]: roseburia intestinalis, 12 h, 2 µM.
Description: The drug is tested on Roseburia intestinalis strain: L1-82 for biotransformation. The drug concentrations were measured before and after a 12-h incubation by liquid-chromatography-coupled mass spectrometry (LC–MS)
Data set [12] is described as follows: The drug is tested on Bacteroides fragilis strain: HMW615 for biotransformation. The drug concentrations were measured before and after a 12-h incubation by liquid-chromatography-coupled mass spectrometry (LC–MS). The settings on record: 2 µM.
Data set [13] can be described thus: The drug is tested on Dorea formicigenerans strain: ATCC27755 for biotransformation. The drug concentrations were measured before and after a 12-h incubation by liquid-chromatography-coupled mass spectrometry (LC–MS). The settings on record: 2 µM.
Data set [14] is described as follows: The drug is tested on Ruminococcus gnavus strain: ATCC29149 for biotransformation. The drug concentrations were measured before and after a 12-h incubation by liquid-chromatography-coupled mass spectrometry (LC–MS). The settings on record: mediterraneibacter gnavus, 2 µM.
Data set [15] in a line: The drug is tested on Eubacterium ventriosum strain: ATCC27560 for biotransformation. The drug concentrations were measured before and after a 12-h incubation by liquid-chromatography-coupled mass spectrometry (LC–MS). The following applies: 2 µM. On the set-up: dose 2 uM, timepoint 0 vs 12 hours. In kind it is ADME.
The nature of data set [16]: The drug is tested on Enterobacter cancerogenus strain: ATCC35316 for biotransformation. The drug concentrations were measured before and after a 12-h incubation by liquid-chromatography-coupled mass spectrometry (LC–MS). The settings on record: 2 µM.
The conditions of data set [17]: bacteroides thetaiotaomicron, 12 h, 2 µM.
Description: The drug is tested on Bacteroides thetaiotaomicron strain: 3731 for biotransformation. The drug concentrations were measured before and after a 12-h incubation by liquid-chromatography-coupled mass spectrometry (LC–MS)
Data set [18] in a line: The drug is tested on Ruminococcus torques strain: ATCC27756 for biotransformation. The drug concentrations were measured before and after a 12-h incubation by liquid-chromatography-coupled mass spectrometry (LC–MS). The following applies: 2 µM. Also noted: dose 2 uM, timepoint 0 vs 12 hours. The data set is classed as ADME.
A short description of data set [19]: The drug is tested on Clostridium sporogenes strain: ATCC15579 for biotransformation. The drug concentrations were measured before and after a 12-h incubation by liquid-chromatography-coupled mass spectrometry (LC–MS). The settings on record: 2 µM.

For `CC(C)N(CCC(C(N)=O)(c1ccccc1)c1ccccn1)C(C)C.O=P(O)(O)O` (configuration not stated) [DISOPYRAMIDE PHOSPHATE], the “Bacterial Biotransformation” value in [1], in data set [2], in data set [3], in [4], in [5] and in data set [6] was “Compound NOT metabolized” throughout. The “Bacterial Biotransformation” value in [7], in data set [8], in [9], in data set [10], in data set [11] and in [12] was “Compound NOT metabolized” throughout. In addition, the “Bacterial Biotransformation” value in [13], in [14], in data set [15] and in data set [16] was “Compound NOT metabolized” in each case.
Consider `CC(C)(C)NC(=O)[C@H]1CC[C@H]2[C@@H]3CC[C@H]4NC(=O)C=C[C@]4(C)[C@H]3CC[C@]12C` [FINASTERIDE], for which the “Bacterial Biotransformation” value in [1] is given as “Compound NOT metabolized”; in [2], “Compound NOT metabolized”; in data set [3], “Compound NOT metabolized”; in data set [17], “Compound NOT metabolized”; in data set [4] it was “Compound metabolized”; in [5], “Compound NOT metabolized”. Moreover, the “Bacterial Biotransformation” value in [6] is listed as “Compound metabolized”; in [7], “Compound NOT metabolized”; in [8] it was “Compound NOT metabolized”; in data set [18] it was “Compound NOT metabolized”; in [9], “Compound NOT metabolized”; in data set [10] it was “Compound NOT metabolized”. Further, the “Bacterial Biotransformation” value in [12] was “Compound metabolized”; in data set [13], “Compound NOT metabolized”; in data set [14] it was “Compound NOT metabolized”; in data set [15] it was “Compound NOT metabolized”; in data set [16], “Compound NOT metabolized”; in data set [19], “Compound NOT metabolized”.
For the compound `O=C(CCCN1CCC(O)(c2ccc(Cl)cc2)CC1)c1ccc(F)cc1` [HALOPERIDOL], the “Bacterial Biotransformation” value in [1], in data set [2], in data set [3], in data set [17], in data set [6] and in data set [7] was “Compound NOT metabolized” throughout. Besides, the “Bacterial Biotransformation” value in data set [8], in data set [18], in data set [9], in [10], in data set [11] and in data set [13] was “Compound NOT metabolized” throughout. Further, the “Bacterial Biotransformation” value in data set [14], in [15], in data set [16] and in data set [19] was “Compound NOT metabolized” in each case.
As to `Cc1ccc(NC(=O)c2ccc(CN3CCN(C)CC3)cc2)cc1Nc1nccc(-c2cccnc2)n1` [IMATINIB], the “Bacterial Biotransformation” value in data set [1] was “Compound NOT metabolized”; in [3], “Compound NOT metabolized”; in [17], “Compound NOT metabolized”; in [4], “Compound metabolized”; in data set [5] it was “Compound NOT metabolized”; in data set [6], “Compound NOT metabolized”. Besides, the “Bacterial Biotransformation” value in data set [7], in data set [8], in data set [18], in data set [9], in [10] and in data set [11] was “Compound NOT metabolized” throughout. Moreover, the “Bacterial Biotransformation” value in [13], in data set [14], in data set [15] and in data set [16] was “Compound NOT metabolized” each time.
For `CN1CCOC(c2ccccc2)c2ccccc2C1` (configuration not stated) [NEFOPAM], the “Bacterial Biotransformation” value in data set [1], in data set [2], in [3], in data set [17], in [4] and in data set [5] was “Compound NOT metabolized” in each case. Moreover, the “Bacterial Biotransformation” value in [6], in data set [7], in data set [8], in [18], in [9] and in data set [10] was “Compound NOT metabolized” each time. In addition, the “Bacterial Biotransformation” value in data set [11], in data set [13], in [14], in data set [15] and in [16] was “Compound NOT metabolized” throughout.
With `CCN(CC)CC#CCOC(=O)C(O)(c1ccccc1)C1CCCCC1.Cl` (configuration not stated) [OXYBUTYNIN CHLORIDE], the “Bacterial Biotransformation” value in data set [1] was “Compound NOT metabolized”; in data set [2], “Compound NOT metabolized”; in data set [3] it was “Compound metabolized”; in data set [17] it was “Compound NOT metabolized”; in [4], “Compound metabolized”; in [5], “Compound NOT metabolized”. Also, the “Bacterial Biotransformation” value in data set [6] is reported as “Compound metabolized”; in data set [7], “Compound metabolized”; in data set [8], “Compound NOT metabolized”; in data set [9] it was “Compound NOT metabolized”; in data set [10], “Compound NOT metabolized”; in data set [11] it was “Compound NOT metabolized”. Further, the “Bacterial Biotransformation” value in data set [13] is on record as “Compound metabolized”; in data set [14], “Compound NOT metabolized”; in [15] it was “Compound metabolized”; in [16], “Compound NOT metabolized”; in [19], “Compound NOT metabolized”.
For `CC(=O)CCCCn1c(=O)c2c(ncn2C)n(C)c1=O` [PENTOXIFYLLINE], the “Bacterial Biotransformation” value in data set [1], in [3], in data set [17], in data set [4], in [5] and in data set [6] was “Compound NOT metabolized” in each case. For the same compound, the “Bacterial Biotransformation” value in [7], in [8], in data set [18], in [9], in data set [10] and in data set [11] was “Compound NOT metabolized” in each case. Moreover, the “Bacterial Biotransformation” value in data set [13], in [14], in data set [15], in data set [16] and in [19] was “Compound NOT metabolized” throughout.
